This note sets out measurements from patent publication US20080206253A1, “Method For Preventing or Treating Pain in a Mammal” (priority 2005, published 2008).

The test system of this data set is p38α. As to the kind of experiment: Western blot of spinal p38α protein expression after IT antisense. The note with it: for p38α protein expression, % Expression Compared to Missense: spinal cord at day six, MS=100%, mean ±SEM n=6; for spinal p38α protein expression compared to missense (MS)-treated animals (in words): five days of IT bolus injections, p38α AS 10-30 μg (30 μg: P<0.05), p38β AS 10-20 μg. It is filed as in vivo, rat. An excerpt:
It has previously been shown that inhibition of spinal p38 MAP kinase prevents both inflammation-evoked hyperalgesia and nerve injury-induced allodynia. Ji et al., Neuron 36: 57-68, 2002; Schafers et al., J Neurosci 23: 2517-2521, 2003; Svensson et al., Neuroreport 14: 1153-1157, 2003a.; Svensson et al., J Neurochem 86: 1534-1544, 2003b. It still remains to be determined whether only one or both of the p38 isoforms, that are present in the spinal cord, are involved in modulation of spinal nociceptive processing. Since there is no specific p38 isoform inhibitors available, rats were treated intrathecally with isoform specific antisense oligonucleotides (AS) in order to knock down p38α and p38β respectively. […] There were no differences between the AS-, MS- or vehicle-treated groups in terms of weight gain or motor function. The specificity of the effects of these two antisense oligonucleotides was also examined. Western blot membranes were stripped and re-incubated the with the other p38 isoform antibody. […] In Table 1, antisense was given IT once daily for 5 days and protein expression assayed in spinal chord at day six compared to protein level detected in missense treated animals (MS=100%). Each group represents mean ±SEM, n=6 per group. (*) represents P<0.05 as compared to the missense group.
Antisense oligonucleotides. Three oligonucleotides (a kind gift from ISIS Pharmaceuticals Inc.) with lengths of 20 nucleotides were employed in the study: ISIS 101757 (p38α AS) […], beginning at position 1081 in the rat p38α mRNA; ISIS 107211 (p38βAS) […], beginning at position 439 in the rat p38β mRNA; and ISIS141923 (an universe MS control) […]. These oligonucleotides were synthesized as 2′-methoxyethyl (MOE) phosphorothioate chimeric oligonucleotides in which the first and last five bases contained MOE modifications with a uniform phosphorothioate backbone. Butler et al., Diabetes 51: 1028-1034, 2002. The oligonucleotides were dissolved in artificial cerebrospinal fluid (ACSF) immediately prior to intrathecal administration. The ACSF contained (mM) 151.1 Na+, 2.6 K+, 0.9 Mg2+, 1.3 Ca 2+, 122.7 Cl−, 21.0 HCO3, 2.5 HPO4 and was bubbled with 95% O2/5% CO2 before use to adjust the final pH to 7.2. AS and MS (10-30 μg) was administrated in 10 μl ACSF followed by 10 μl saline daily for five days and behavioral experiments and spinal tissue collection performed on day six.
Western blot. Prior to sacrifice, rats were deeply anesthetized and after decapitation the spinal cords were ejected from the vertebral column by a saline-filled syringe. The lumbar part of the spinal cord was immediately homogenized in extraction buffer (50 mM Tris buffer, pH 8.0, containing 0.5% Triton X-100, 150 mM NaCl, 1 mM EDTA, phosphatase and protease inhibitors) by sonication. The tissue extracts were subjected to denaturing NuPAGE 4-12% Bis-Tris gel electrophoresis and then transferred to nitrocellulose membranes (Micronic Separation Inc. Westborough, Mass.). After blocking nonspecific binding sites with 5% low-fat milk in PBS containing 0.1% Tween 20 (PBS-T) for 1 hour in room temperature, the membranes were incubated with antibodies overnight at 4° C. After washing, the antibody-protein complexes were probed with appropriate secondary antibodies labeled with horseradish peroxidase for 1 hr at room temperature and detected with chemiluminescent reagents (SuperSignal, Pierce, Rockford, Ill.). […]
(In general: In western blotting, separated proteins are transferred to a membrane and probed.)

Entries after “also recorded” stand apart in the source; their conditions may differ. Marks after values point to notes of the source that are not given here.

As to “p38α AS: 20-nucleotide 2′-MOE phosphorothioate chimeric antisense AGGTGCTCAGGACTCCATTT, beginning at position 1081 in the rat p38α mRNA (all phosphorothioate, sugars by position and methylation of C not given here; 2'-MOE chimeric (gapmer) antisense)”, the “spinal p38α protein expression compared to missense (MS)-treated animals (in words)” value is reported as “significant down-regulation; also recorded: knocked down”. For the same substance, the “p38α protein expression, % Expression Compared to Missense” value (IT antisense 10 μg once daily for 5 days) is on record as 59 ± 26%. Also, for the setting “IT antisense 30 μg once daily for 5 days”, the “p38α protein expression, % Expression Compared to Missense” value is listed as 39 ± 8* %.
Take “p38β AS: 20-nucleotide 2′-MOE phosphorothioate chimeric antisense GTATGTCCTCCTCGCGTGGA, beginning at position 439 in the rat p38β mRNA (all phosphorothioate, sugars by position and methylation of C not given here; 2'-MOE chimeric (gapmer) antisense)”: the “spinal p38α protein expression compared to missense (MS)-treated animals (in words)” value is “somewhat increased”. For the setting “IT antisense 20 μg once daily for 5 days”, the “p38α protein expression, % Expression Compared to Missense” value is listed as 205 ± 65* %.
